The record followed here is article PMC6142817, “New Urea Derivatives Are Effective Anti-senescence Compounds Acting Most Likely via a Cytokinin-Independent Mechanism” (Frontiers in Plant Science, 2018).

The subject of test [1] is excised wheat leaves (chlorophyll degradation in the dark). The test can be described thus: Wheat leaf senescence assay (WLSA). In kind it is cell-based, Triticum aestivum cv. Hereward. Particulars: for Chlorophyll content (% of the fresh control): 5 days in the dark, DMSO control = 0; for chlorophyll remaining, % of the initial chlorophyll: 21 days after leaf detachment, dark; for IC50: Triticum aestivum, 120 h. The method, then: Tobacco callus, Amaranthus and Wheat leaf senescence assay (WLSA) were performed as described by Holub et al. ([1998]) including the number of repetitions in each assay. An exception to the published protocols was that the tobacco callus assay was performed in 6-well microtiter plates (with each well containing 3 ml of Murashige Skoog medium into which 0.1 g of callus was added). Each compound was tested at least twice in each assay and in a wider concentration range to obtain concentration-dependent activity curves. IC50 means compound concentration at which chlorophyll degradation is inhibited by 50% and EC50 means half the maximal effective concentration.
Amaranthus assay evaluates the induction of betacyanin synthesis in Amaranthus (Amaranthus caudatus var. atropurpurea) cotyledons, which is induced by cytokinins (Bamberger and Mayer, [1960]). The WLSA evaluates the ability of compounds to retard chlorophyll degradation in excised wheat leaves that are kept in the dark. The wheat leaf segments (Triticum aestivum cv. Hereward) were used in all other experiments requiring wheat. Arabidopsis (Arabidopsis thaliana) leaf senescence assay was performed with detached leaves from 30-day-old plants, which were grown in soil in phytotron under standard conditions (Rivero et al., [2014]). Four leaves of a combined weight of 60 mg were placed in a six-well plate and stored in the dark for 12 days at 22°C. The leaves (except the fresh control leaves) floated on water solutions of tested compounds. Fresh control leaves were leaves detached from a plant and immediately used for chlorophyll determination. The duration of the senescence assay of Arabidopsis leaves was prolonged to highlight the difference in chlorophyll content between a negative control and treatments. Arabidopsis leaves were losing chlorophyll more slowly than wheat leaves. Chlorophyll extraction and spectrophotometric determination of its content was done according to Holub et al. ([1998]).

The next test addresses T1, AHK3 (Arabidopsis thaliana, UniProt Q9C5U1).
T1 construct: expressed in transfected cells; host or cells: Escherichia coli strain KMI001, plasmid pSTV28-AHK3
T1 sequence (Q9C5U1 1-1036): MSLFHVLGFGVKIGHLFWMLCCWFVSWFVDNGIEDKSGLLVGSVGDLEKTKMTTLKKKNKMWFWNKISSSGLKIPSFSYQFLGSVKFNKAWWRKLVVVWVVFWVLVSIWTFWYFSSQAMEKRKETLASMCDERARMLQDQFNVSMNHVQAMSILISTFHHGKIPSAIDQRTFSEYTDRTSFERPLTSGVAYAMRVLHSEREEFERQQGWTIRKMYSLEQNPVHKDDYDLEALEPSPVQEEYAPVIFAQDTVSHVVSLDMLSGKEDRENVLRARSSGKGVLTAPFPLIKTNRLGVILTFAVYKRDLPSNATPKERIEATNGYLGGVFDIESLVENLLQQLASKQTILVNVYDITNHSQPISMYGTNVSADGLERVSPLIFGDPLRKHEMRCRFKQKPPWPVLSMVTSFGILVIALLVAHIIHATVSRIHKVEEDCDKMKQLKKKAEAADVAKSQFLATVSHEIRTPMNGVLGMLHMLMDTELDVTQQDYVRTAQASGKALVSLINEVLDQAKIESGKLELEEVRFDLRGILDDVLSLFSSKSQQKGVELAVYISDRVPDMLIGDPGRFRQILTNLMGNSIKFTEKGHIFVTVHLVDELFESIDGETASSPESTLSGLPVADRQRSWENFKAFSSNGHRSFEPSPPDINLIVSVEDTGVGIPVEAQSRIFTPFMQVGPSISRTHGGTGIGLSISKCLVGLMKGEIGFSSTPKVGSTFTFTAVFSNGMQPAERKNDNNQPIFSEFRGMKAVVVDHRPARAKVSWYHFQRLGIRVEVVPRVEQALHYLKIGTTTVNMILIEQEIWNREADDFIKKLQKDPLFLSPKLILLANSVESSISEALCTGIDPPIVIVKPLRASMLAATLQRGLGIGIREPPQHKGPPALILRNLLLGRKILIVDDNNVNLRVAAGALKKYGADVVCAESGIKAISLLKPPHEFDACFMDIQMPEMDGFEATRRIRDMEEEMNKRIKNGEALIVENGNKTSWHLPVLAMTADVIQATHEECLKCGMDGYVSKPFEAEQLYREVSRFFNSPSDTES
Briefly: Cytokinin receptor activation assay in E. coli (AHK3). The format is cell-based. An excerpt:
The activity of this enzyme is finally measured in the assay and corresponds to the ability of the tested compound to activate this cytokinin receptor. Both assays were done at least twice and the presented graphs are the most representative examples.

A further test deals with ARR5:GUS reporter gene. Briefly: Arabidopsis ARR5:GUS reporter gene assay. The format is in vivo, Arabidopsis thaliana. As for the experimental part: Transgenic Arabidopsis plants (Arabidopsis thaliana (L.) Heynh. accession Wassilewskija) harboring the GUS reporter gene (gene for β-glucuronidase) fused to 1.6 kb of the ARR5 (PARR5−GUS) gene promoter (D'Agostino et al., [2000]) were kindly provided by professor Thomas Schmülling. The assay was performed according to Romanov et al. ([2002]). β-Glucuronidase (GUS) activity was quantitatively determined by measuring fluorescence of 4-methylumbelliferyl (MU) on a Synergy H4 hybrid reader (Biotek, Winooski, VT) with excitation and emission wavelengths of 365 and 445 nm, respectively. GUS specific activity was determined as nmol MU × mg protein^−1 × h^−1. This was calculated by dividing the relative fluorescence units (obtained per hour) by protein content of the same sample. Protein extraction was done as described by Romanov et al. ([2002]) but its content was determined using a bicinchoninic acid reagent (Smith et al., [1985]). Finally we expressed the GUS activity in samples as a relative percentage, the activity of 1 μM BA being set as 100% activation. The concentration-dependent activity curves and EC50 values (for TDZ, tZ, BA, TD-iP, and TD-tZ) were constructed using Scion image program.

For test [2], the system named is detached wheat leaves (membrane lipid peroxidation). The test can be described thus: TBARS content (lipid peroxidation) in leaves from WLSA. The format is cell-based, Triticum aestivum. Particulars: 5 days in the dark, DMSO control = 100%. The method, then:
Four leaf segments of combined weight of 100 mg from WLSA (5 days in the dark) were used for the determination of TBARS. Each sample was done in five repetitions (5 × 100 mg). The peroxidation of leaf membrane lipids was determined as described by Kováčik et al. ([2006]), with minor modifications—wheat leaves were extracted with 80% methanol and the trichloroacetic acid content was decreased to 0.1%.

Several values for one entry are separate records, joined by “and”; a condition that tells them apart may be missing. Equal entries are not always repeated. Where two headings read alike, the source gives them in different places. Where only a bound is given, the exact number is not on record here.

The term IC50 denotes the concentration that inhibits the measured activity by half. As a reminder, the EC50 is the midpoint of the concentration-response curve. With `O=C(Nc1ccccc1)Nc1cnns1` [TDZ, 1-phenyl-3-(1,2,3-thiadiazol-5-yl)urea, reference compound], the “Chlorophyll content (% of the fresh control)” value in test [1] (0.01 μM) is listed as 8 (±2) %; in test [1] (0.1 μM), 18 (±5) %; in test [1] (1 μM), 34 (±7) %; in test [1] (10 μM), 50 (±11) %; in test [1] (100 μM), 91 (±2) %. Further, the “chlorophyll remaining, % of the initial chlorophyll” value in test [1] (10 μM) was “approximately 15%”. In addition, in test [1] (read-out: Senescence bioassay (IC50, μM)), the IC50 was 13 µM. Also, the EC50 turned out to be 105 nM on AHK3 and 4 nM in the test on ARR5:GUS reporter gene (Arabidopsis thaliana, read-out: ARR5:GUS activation EC50). Further, the “TBARS content (relative %)” value in test [2] (0.01 μM) was 101 (±5) %; in test [2] (0.1 μM) it was 80 (±3) %; in test [2] (1 μM) it was 71 (±6) %; in test [2] (10 μM), 68 (±8) %; in test [2] (100 μM, fresh control = 0), 55 (±10) %.

On to `COCCNC(=O)Nc1cnns1` [ASES, 1-(2-methoxy-ethyl)-3-1,2,3-thiadiazol-5-yl-urea], for which the “Chlorophyll content (% of the fresh control)” value in test [1] (0.01 μM) was 8 (±4) %; in test [1] (0.1 μM) it was 25 (±7) %; in test [1] (1 μM) it was 51 (±8) %; in test [1] (10 μM), 79 (±8) %; in test [1] (100 μM), 98 (±7) %. Besides, the “chlorophyll remaining, % of the initial chlorophyll” value in test [1] (10 μM) is recorded as around 50%. Further, the half-maximal inhibitory concentration (IC50) in test [1] (detached wheat leaves in the dark, 5 days, concentration at which chlorophyll degradation is inhibited by 50%, read-out: Senescence bioassay (IC50)) came to 0.95 µM. Besides, the “times more effective than TDZ in WLSA” value in test [1] (ratio of IC50 values) is “approximately 13 times”. At AHK3 (E. coli bacterial receptor assay, read-out: AHK3 receptor activation EC50), the EC50 is above 50000 nM. In the test with ARR5:GUS reporter gene (compound at 10 μM, 1 μM BA = 100%), the “ARR5:GUS activity, % of BA activity” value is 55–65%. In addition, the “TBARS content (relative %)” value is 105 (±5) % in test [2] (0.01 μM); 91 (±10) % in test [2] (0.1 μM); 47 (±4) % in test [2] (1 μM); 31 (±5) % in test [2] (10 μM); 24 (±6) % and 24% in test [2] (100 μM, fresh control = 0).
